Tested on: Delayed type hypersensitivity (DTH) skin reaction
Assay: Inhibition of DTH skin reactions (oxazolone-induced mouse ear swelling test)
Format: in vivo, female Balb/c mice
Conditions: for % Inf ((diff/baseline measurement)×100) / % Inhibit ([1−(diff/diff of PBS)]×100) / Diff. (average difference between baseline and post treatment ear measurements): 24 hours after challenge; for effectiveness in the DTH skin reaction model: 5-100 mg/ml
Experimental: Delayed type hypersensitivity (DTH), a localized inflammatory reaction induced by cytokines secreted by TH cells when they encounter certain types of antigens, is an established experimental model for skin inflammation.
DTH reactions were induced in the abdomen skin of 8 week old female Balb/c mice. The mice were sensitized first by topical application of 100 μl of a 5% Oxazolone (4-Ethoxymethylene-2-phenyl-2-oxazolin-5-one; Sigma) solution in ethanol/acetone (3:1, vol/vol) to a shaved abdomen. The mice were anesthetized with ip injection of Ketamine (1 ml)+Xylazine (1 ml)+Saline (8 ml), (0.2 ml per 20 g mouse). Anesthetization was performed before the shaving of the abdomen and the first sensitization.
After 4 days the mice were challenged for the second time using 1% Oxazolone (4-Ethoxymethylene-2-phenyl-2-oxazolin-5-one; Sigma) solution in ethanol/acetone (3:1, vol/vol). The solution was pipetted to the shaved abdomen of the mice.
Six days after the first sensitization, the right ear of each mouse was challenged with a topical application of 20 μl (10 μl on each surface of the ear) of a 1% Oxazolone solution in olive oil/acetone (3:1, vol/vol).
Treatment was given 30 min after challenging by applying 40 μl (20 μl on each surface of the ear) of treatment compounds on the challenged ear of each mouse.
After 24 hours, the extent of inflammation was measured using the mouse ear swelling test (caliper) and the percent inhibition induced by the treatment was quantified.
The experiment includes groups treated with 5, 15, 40, and 100 mg/ml of octadec-(Z)-9-enoic acid 4-dimethylaminomethyl-benzyl ester HCl (1c) and groups treated with 5, 15, 40, and 100 mg/ml of octadec-(Z)-9-enoic acid 4-dimethylaminomethyl-phenyl ester HCl (2d). The experiment also includes dexamethasone (2 mg/mouse) as a positive control, one negative control group (PBS, phosphate buffered saline), and one naïve group. There were 6 mice per group. The researchers who performed the measurements were blinded as to the grouping of each mouse.
In Table 1, “diff” refers to average difference between baseline and post treatment measurements in mm; “% Inf” refers to the (diff/baseline measurement)×100; and, “% Inhibit” refers to [1−(diff/diff of PBS)]×100. Baseline measurements of the ear were conducted before the first sensitization.

[1] = positive control, dose 2 mg/mouse
[2] = topical on challenged ear, treatment 5 mg/ml (0.2 mg/mouse)
[3] = topical on challenged ear, treatment 15 mg/ml (0.6 mg/mouse)
[4] = topical on challenged ear, treatment 40 mg/ml (1.6 mg/mouse)
[5] = topical on challenged ear, treatment 100 mg/ml (4 mg/mouse)

SMILES | % Inf ((diff/baseline measurement)×100) [1] [%] | % Inhibit ([1−(diff/diff of PBS)]×100) [1] [%] | Diff. (average difference between baseline and post treatment ear measurements) [1] [mm] | most effective doses (DTH skin reaction model, topical) [mg/mL] | % Inf ((diff/baseline measurement)×100) [2] [%] | % Inhibit ([1−(diff/diff of PBS)]×100) [2] [%] | Diff. (average difference between baseline and post treatment ear measurements) [2] [mm] | % Inf ((diff/baseline measurement)×100) [3] [%] | % Inhibit ([1−(diff/diff of PBS)]×100) [3] [%] | Diff. (average difference between baseline and post treatment ear measurements) [3] [mm] | % Inf ((diff/baseline measurement)×100) [4] [%] | % Inhibit ([1−(diff/diff of PBS)]×100) [4] [%] | Diff. (average difference between baseline and post treatment ear measurements) [4] [mm] | % Inf ((diff/baseline measurement)×100) [5] [%] | % Inhibit ([1−(diff/diff of PBS)]×100) [5] [%] | Diff. (average difference between baseline and post treatment ear measurements) [5] [mm] | effectiveness in the DTH skin reaction model (topical)
C[C@@H]1C[C@H]2[C@@H]3CCC4=CC(=O)C=C[C@]4(C)[C@@]3(F)[C@@H](O)C[C@]2(C)[C@@]1(O)C(=O)CO [Positive control, dexamethasone, reference compound] | 20.55 | 84.74 | 0.04 |  |  |  |  |  |  |  |  |  |  |  |  |  | 
CCCCCCCC/C=C\CCCCCCCC(=O)Oc1ccc(CN(C)C)cc1.Cl [Compound 2d, Octadec-(Z)-9-enoic acid 4-dimethylaminomethyl-phenyl ester HCl] |  |  |  | 100 | 113.46 | 13.31 | 0.24 | 107.18 | 21.25 | 0.22 | 114.66 | 13.31 | 0.24 | 55.96 | 59.10 | 0.11 | effective
CCCCCCCC/C=C\CCCCCCCC(=O)OCc1ccc(CN(C)C)cc1.Cl [Compound 1c, Octadec-(Z)-9-enoic acid 4-dimethylaminomethyl-benzyl ester HCl] |  |  |  |  | 92.65 | 26.74 | 0.20 | 103.21 | 26.01 | 0.20 | 58.56 | 54.82 | 0.12 | 48.19 | 63.37 | 0.10 | effective

Source: patent publication US7294739B1, “Basic amine esters or oleic acid and their use as anti-inflammatory or immunobodulatory agents” (Teva Pharmacaetical Industries Ltd., priority 2006, dated 2007)
